Test results taken from patent publication US20190367516A1 (Bayer Pharma Aktiengesellschaft, priority 2015, published 2019).
Read-outs that look alike come from different tables or passages of the source.

Experiments:
human M2 receptor [1] = biological target: T1, human M2 receptor (Homo sapiens, UniProt P08172); settings: Receptor activity EC50, M2-GIRK1/4 activation test, acetylcholine at EC20; allosteric potency; in some cases mean values from two or more determinations
T1 sequence (P08172 1-466): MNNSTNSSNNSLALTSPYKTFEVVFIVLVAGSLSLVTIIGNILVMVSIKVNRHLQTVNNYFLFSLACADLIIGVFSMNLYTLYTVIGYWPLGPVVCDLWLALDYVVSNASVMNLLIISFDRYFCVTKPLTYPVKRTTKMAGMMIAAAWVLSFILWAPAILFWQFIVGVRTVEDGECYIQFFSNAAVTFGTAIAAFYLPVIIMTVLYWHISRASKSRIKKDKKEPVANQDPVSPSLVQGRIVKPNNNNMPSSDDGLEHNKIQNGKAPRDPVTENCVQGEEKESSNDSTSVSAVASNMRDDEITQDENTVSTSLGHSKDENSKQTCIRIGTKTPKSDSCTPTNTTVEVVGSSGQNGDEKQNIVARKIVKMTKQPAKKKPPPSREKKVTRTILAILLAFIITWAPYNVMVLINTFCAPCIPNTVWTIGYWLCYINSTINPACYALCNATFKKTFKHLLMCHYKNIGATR
Description: Functional M2-GIRK1/4 Activation Test
The binding of orthosteric agonists (endogenous ligand: acetylcholine) to the M2 receptor leads to receptor activation or a change in conformation of the receptor in the manner of a shift in equilibrium in favour of the active receptor conformation.
The agonist-induced change in conformation of the M2 receptor results in a Gαi protein activation. […] Under physiological conditions, the result is then a selective efflux of potassium from the cell along the electrochemical gradient. […] The extent of hyperpolarization can therefore be regarded as a measure of the activation of the M2 receptor.
The test cell used is a recombinant CHO-DUKX cell line which has been stably transfected with cDNA coding for the human M2 receptor and with cDNA coding for both GIRK1/4 subunits (CHO-DUKX-M2-GIRK). The transmembrane potential, or the relative changes in the transmembrane potential as a function of substance addition or M2 activation, is determined by means of a voltage-sensitive dye (FLIPR Membrane Potential Assay Kit Blue, Molecular Devices # R8034) and the measurement of cell fluorescence using a proprietary fluorescence imaging instrument.
Determination of the Allosteric Potency of the Test Substances (EC50 Value)
The sowing medium consisted of MEM alpha medium (supplemented with 5% FCS, 2% Glutamax, no genticin).
For the particular measurement, the medium was removed and the cells were laden with the voltage-sensitive dye for at least 6 min at room temperature (30 μl of loading buffer per 384-well). This was followed, in a first measurement, by the determination of the fluorescence for the resting transmembrane potential for a period of 5 sec. Thereafter, 10 μl in each case of the test substances diluted in loading buffer were added, followed by a second measurement to determine the transmembrane potential for a period of 50 sec. Finally, the cells were admixed with 10 μl of agonist solution (acetylcholine dissolved in loading buffer). Acetylcholine was used at the concentration corresponding to the EC20, which had been determined in a preliminary test. The M2-mediated GIRK1/4 activation or hyperpolarization was then monitored in a third measurement over a period of 60 sec. The EC50 value (degree of allosteric potency of test compound) and the efficiency (measure of the boosting of the acetylcholine effect at an EC20 acetylcholine concentration) were determined with the aid of a 4-parameter logistic function (Hill function).

human M2 receptor [2] = biological target: T1, human M2 receptor; assay type: cell-based; settings: α >1 = positive cooperativity
Description: B-1.2. Determination of Positive Cooperativity (α Factor)
In contrast to the EC50 determination of the test substances (see B-1.1), however, this is not done using one acetylcholine concentration; instead, every concentration of the test substance is combined with an acetylcholine 8-point dose-response curve. […] The shift in the acetylcholine dose-response curve in the presence of increasing concentrations of the test substance is analysed and quantified by means of GraphPad PRISM (Allosteric EC50 shift). […] Positive cooperativity is the hallmark of a positive allosteric modulator. […] The greater the magnitude of the α value, the greater the extent of cooperativity between orthosteric and allosteric.

[3] = shift in the acetylcholine dose-response curve (Allosteric EC50 shift, GraphPad PRISM)

Compound | EC50 (human M2 receptor [1]) | Cooperativity (alpha factor) (human M2 receptor [2]; [3]) | Cooperativity (alpha factor) (human M2 receptor [2]; shift of acetylcholine dose-response curve (Allosteric EC50 shift))
CC[C@@H](NC(=O)c1cn(-c2ccc(F)cc2F)c2nc(N3CCC4(C3)CC4(F)F)ccc2c1=O)C(F)(F)F (mixture of isomers) [Example 29, 7-(1,1-Difluoro-5-azaspiro[2.4]hept-5-yl)-1-(2,4-difluorophenyl)-4-oxo-N-[(2R)-1,1,1-trifluorobutan-2-yl]-1,4-dihydro-1,8-naphthyridine-3-carboxamide (diastereomer mixture)] | 112 nM | 4 | 
CC[C@@H](NC(=O)c1cn(-c2ccc(F)cc2F)c2nc(N3CCC(C)(F)C3)ccc2c1=O)C(F)(F)F (mixture of isomers) [Example 30, 1-(2,4-Difluorophenyl)-7-(3-fluoro-3-methylpyrrolidin-1-yl)-4-oxo-N-[(2R)-1,1,1-trifluorobutan-2-yl]-1,4-dihydro-1,8-naphthyridine-3-carboxamide (diastereomer mixture)] | 95 nM | 11 | 
CC[C@@H](NC(=O)c1cn(-c2ccc(F)cc2F)c2nc(N3CCC(C)(OC)C3)ccc2c1=O)C(F)(F)F (mixture of isomers) [Example 191, 1-(2,4-Difluorophenyl)-7-[3-methoxy-3-methylpyrrolidin-1-yl]-4-oxo-N-[(2R)-1,1,1-trifluorobutan-2-yl]-1,4-dihydro-1,8-naphthyridine-3-carboxamide] | 60 nM | 7 | 
O=C(NC(c1cccc(F)c1)C(F)(F)F)c1cn(-c2ccc(F)cc2F)c2nc(N3C[C@@H](O)CC3=O)ccc2c1=O (mixture of isomers) [Example 272, 1-(2,4-Difluorophenyl)-7-[(4S)-4-hydroxy-2-oxopyrrolidin-1-yl]-4-oxo-N-[2,2,2-trifluoro-1-(3-fluorophenyl)ethyl]-1,4-dihydro-1,8-naphthyridine-3-carboxamide] | 33 nM | 55 | 
O=C(NC(C1CC1)C(F)(F)F)c1cn(-c2ccccc2Cl)c2nc(N3C[C@@H](O)CC3=O)ccc2c1=O (mixture of isomers) [Example 279, 1-(2-Chlorophenyl)-N-[1-cyclopropyl-2,2,2-trifluoroethyl]-7-[(4S)-4-hydroxy-2-oxopyrrolidin-1-yl]-4-oxo-1,4-dihydro-1,8-naphthyridine-3-carboxamide] | 66 nM | 34 | 
CC1(F)CCN(c2ccc3c(=O)c(C(=O)NC45CC6CC(CC(C6)C4)C5)cn(-c4ccc(F)cc4F)c3n2)C1 (racemic) [Example 9, rac-1-(2,4-Difluorophenyl)-7-(3-fluoro-3-methylpyrrolidin-1-yl)-4-oxo-N-(tricyclo[3.3.1.1^3,7]dec-1-yl)-1,4-dihydro-1,8-naphthyridine-3-carboxamide] | 40 nM | 11 | 
CCC(NC(=O)c1cn(-c2ccc(F)cc2F)c2nc(N3CCN(C(=O)OC)CC3)ccc2c1=O)C(F)(F)F (racemic) [Example 23, rac-Methyl 4-{8-(2,4-difluorophenyl)-5-oxo-6-[(1,1,1-trifluorobutan-2-yl)carbamoyl]-5,8-dihydro-1,8-naphthyridin-2-yl}piperazine-1-carboxylate] | 96 nM | 20 | 
CN(C)c1ccc2c(=O)c(C(=O)NC(c3c(Cl)cccc3Cl)C(F)(F)F)cn(-c3ccc(F)cc3F)c2n1 (racemic) [Example 56, rac-N-[1-(2,6-Dichlorophenyl)-2,2,2-trifluoroethyl]-1-(2,4-difluorophenyl)-7-(dimethylamino)-4-oxo-1,4-dihydro-1,8-naphthyridine-3-carboxamide] | 56 nM | 15 | 
CCC(NC(=O)c1cn(-c2ccc(F)cc2F)c2nc(NCCF)ccc2c1=O)C(F)(F)F (racemic) [Example 85, rac-1-(2,4-Difluorophenyl)-7-[(2-fluoroethyl)amino]-4-oxo-N-[1,1,1-trifluorobutan-2-yl]-1,4-dihydro-1,8-naphthyridine-3-carboxamide] | 118 nM | 26 | 
CCC(NC(=O)c1cn(-c2ccc(F)cc2F)c2nc(N(C)CCF)ccc2c1=O)C(F)(F)F (racemic) [Example 104, rac-1-(2,4-Difluorophenyl)-7-[(2-fluoroethyl)(methyl)amino]-4-oxo-N-[1,1,1-trifluorobutan-2-yl]-1,4-dihydro-1,8-naphthyridine-3-carboxamide] | 28 nM | 15 | 
CC(C)CC(NC(=O)c1cn(-c2ccc(F)cc2F)c2nc(N(C)CCF)ccc2c1=O)C(F)(F)F (racemic) [Example 107, rac-1-(2,4-Difluorophenyl)-7-[(2-fluoroethyl)(methyl)amino]-4-oxo-N-[1,1,1-trifluoro-4-methylpentan-2-yl]-1,4-dihydro-1,8-naphthyridine-3-carboxamide] | 57 nM | 14 | 
CC(NC(=O)c1cn(-c2ccc(F)cc2F)c2nc(NCC(F)F)ccc2c1=O)C(F)(F)F (racemic) [Example 121, rac-7-[(2,2-Difluoroethyl)amino]-1-(2,4-difluorophenyl)-4-oxo-N-[1,1,1-trifluoropropan-2-yl]-1,4-dihydro-1,8-naphthyridine-3-carboxamide] | 295 nM | 8 | 
CC[C@@H](NC(=O)c1cn(-c2ccc(F)cc2F)c2nc(N3CCC(C)(O)C3=O)ccc2c1=O)C(F)(F)F (mixture of isomers) [Example 194, 1-(2,4-Difluorophenyl)-7-[3-hydroxy-3-methyl-2-oxopyrrolidin-1-yl]-4-oxo-N-[(2R)-1,1,1-trifluorobutan-2-yl]-1,4-dihydro-1,8-naphthyridine-3-carboxamide] | 140 nM | 16 | 
CC[C@@H](NC(=O)c1cn(-c2ccc(F)cc2F)c2nc(N3CCC(C)(OC)C3=O)ccc2c1=O)C(F)(F)F (mixture of isomers) [Example 197, 1-(2,4-Difluorophenyl)-7-[3-methoxy-3-methyl-2-oxopyrrolidin-1-yl]-4-oxo-N-[(2R)-1,1,1-trifluorobutan-2-yl]-1,4-dihydro-1,8-naphthyridine-3-carboxamide] | 120 nM | 10 | 
CCC(NC(=O)c1cn(-c2ccccc2F)c2nc(N(C)C)ccc2c1=O)C(F)(F)F (racemic) [Example 204, rac-7-(Dimethylamino)-1-(2-fluorophenyl)-4-oxo-N-[1,1,1-trifluorobutan-2-yl]-1,4-dihydro-1,8-naphthyridine-3-carboxamide] | 34 nM | 8 | 
O=C(NC(c1ccccc1Cl)C(F)(F)F)c1cn(-c2ccc(F)cc2F)c2nc(N3CCCC(O)C3=O)ccc2c1=O (racemic) [Example 206, rac-N-[(1R)-(2-Chlorophenyl)-2,2,2-trifluoroethyl]-1-(2,4-difluorophenyl)-7-[3-hydroxy-2-oxopiperidin-1-yl]-4-oxo-1,4-dihydro-1,8-naphthyridine-3-carboxamide] | 107 nM | 14 | 
O=C(NC(c1ccccc1Cl)C(F)(F)F)c1cn(-c2ccc(F)cc2F)c2nc(N3C[C@@H](O)CC3=O)ccc2c1=O (mixture of isomers) [Example 211, N-[1-(2-Chlorophenyl)-2,2,2-trifluoroethyl]-1-(2,4-difluorophenyl)-7-[(4S)-4-hydroxy-2-oxopyrrolidin-1-yl]-4-oxo-1,4-dihydro-1,8-naphthyridine-3-carboxamide] | 21 nM | 35 | 
CCC(NC(=O)c1cn(-c2c(F)cc(F)cc2F)c2nc(N3C[C@@H](O)[C@H](O)C3)ccc2c1=O)C(F)(F)C(F)(F)F (single isomer, unassigned) [Example 524] |  |  | 60
CN(C)c1ccc2c(=O)c(C(=O)NCc3c(Cl)cccc3C(F)(F)F)cn(-c3ccc(F)cc3F)c2n1 [Example 58, N-[2-Chloro-6-(trifluoromethyl)benzyl]-1-(2,4-difluorophenyl)-7-(dimethylamino)-4-oxo-1,4-dihydro-l,8-naphthyridine-3-carboxamide] |  | 9 | 
CC[C@H](NC(=O)c1cn(-c2c(F)cc(F)cc2F)c2nc(N3CCN(CCO)C3=O)ccc2c1=O)C(F)(F)F [Example 362, 7-[3-(2-Hydroxyethyl)-2-oxoimidazolidin-1-yl]-4-oxo-N-[(2S)-1,1,1-trifluorobutan-2-yl]-1-(2,4,6-trifluorophenyl)-1,4-dihydro-1,8-naphthyridine-3-carboxamide] |  | 27 | 
